How the values were obtained:
Assay in all cases: normalised viability (% of control), CellTiter-Blue; higher = more viable cells (about 100 = DMSO control)
Settings in all cases: incubation time: 72 h
[1] = system: CAL-148
Description: (§1)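 DSRT, CellTiter-Blue viability, 72 h incubation. Signal is normalised to DMSO and benzethonium chloride controls. Value is the normalised response at dose 8.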

[2] = system: CAL-51
Description: as §1

[3] = system: CAL-85-1
Description: as §1

[4] = system: DU-4475
Description: as §1

[5] = system: HDQ-P1
Description: as §1

[6] = system: MDA-MB-453
Description: as §1

[7] = system: CAL-148; remark: listed apart in the source
Description: (§2)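 DSRT, CellTiter-Blue viability, 72 h incubation. Signal is normalised to DMSO and benzethonium chloride controls. Value is the normalised response at dose 6.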

[8] = system: CAL-51; remark: listed apart in the source
Description: as §2

[9] = system: CAL-85-1; remark: listed apart in the source
Description: as §2

[10] = system: DU-4475; remark: listed apart in the source
Description: as §2

[11] = system: HDQ-P1; remark: listed apart in the source
Description: as §2

[12] = system: MDA-MB-453; remark: listed apart in the source
Description: as §2

[13] = system: CAL-148; remark: listed apart in the source
Description: (§3)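 DSRT, CellTiter-Blue viability, 72 h incubation. Signal is normalised to DMSO and benzethonium chloride controls. Value is the normalised response at dose 7.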

[14] = system: CAL-51; remark: listed apart in the source
Description: as §3

[15] = system: CAL-85-1; remark: listed apart in the source
Description: as §3

[16] = system: DU-4475; remark: listed apart in the source
Description: as §3

[17] = system: HDQ-P1; remark: listed apart in the source
Description: as §3

[18] = system: MDA-MB-453; remark: listed apart in the source
Description: as §3

Row | Compound | normalised viability [1] [%] | normalised viability [2] [%] | normalised viability [3] [%] | normalised viability [4] [%] | normalised viability [5] [%] | normalised viability [6] [%] | normalised viability [7] [%] | normalised viability [8] [%] | normalised viability [9] [%] | normalised viability [10] [%] | normalised viability [11] [%] | normalised viability [12] [%] | also measured
1 | CN1CCC(COc2cnc(-c3cccc(Cn4nc(-c5cccc(C#N)c5)ccc4=O)c3)nc2)CC1 (3000 nM) | 79.8 | 84.4 | 87.3 | 108 | 85.4 | 63.8 |  |  |  |  |  |  | 
2 | CN(C)C/C=C/C(=O)Nc1cc2c(Nc3ccc(F)c(Cl)c3)ncnc2cc1O[C@H]1CCOC1 [Afatinib] (3000 nM) | 58.2 | 86.2 | 39.6 | 92.7 | 19.4 | 30 |  |  |  |  |  |  | 
3 | CN1CC[C@H](c2c(O)cc(O)c3c(=O)cc(-c4ccccc4Cl)oc23)[C@H](O)C1 [Alvocidib] (3000 nM) | 14.4 | 4.88 | 3.02 | 1.28 | 13.7 | 7.79 |  |  |  |  |  |  | 
4 | Nc1nc(Cl)nc2c1ncn2[C@H]1C[C@H](O)[C@@H](CO)O1 [Cladribine] (300 nM) | 103 | 104 | 92.9 | 102 | 96.3 | 96.9 |  |  |  |  |  |  | 
5 | Nc1ccn([C@@H]2O[C@H](CO)[C@@H](O)[C@@H]2O)c(=O)n1 [Cytarabine] (3000 nM) | 34.8 | 16.4 | 70.1 | 26.1 | 86.7 | 62.5 |  |  |  |  |  |  | 
6 | Cc1c2oc3c(C)ccc(C(=O)N[C@@H]4C(=O)N[C@H](C(C)C)C(=O)N5CCC[C@H]5C(=O)N(C)CC(=O)N(C)[C@@H](C(C)C)C(=O)O[C@@H]4C)c3nc-2c(C(=O)N[C@@H]2C(=O)N[C@H](C(C)C)C(=O)N3CCC[C@H]3C(=O)N(C)CC(=O)N(C)[C@@H](C(C)C)C(=O)O[C@@H]2C)c(N)c1=O [Dactinomycin] (300 nM) | 11.4 | 5.05 | 2.52 | 1.26 | 9.3 | 6.05 |  |  |  |  |  |  | 
7 | COc1cccc2c1C(=O)c1c(O)c3c(c(O)c1C2=O)C[C@@](O)(C(=O)CO)C[C@@H]3O[C@H]1C[C@H](N)[C@H](O)[C@H](C)O1 [Doxorubicin] (300 nM) | 31.9 | 33.5 | 54 | 39.4 | 58 | 70.6 |  |  |  |  |  |  | 
8 | Cc1ccc(F)c(NC(=O)Nc2ccc(-c3cccc4[nH]nc(N)c34)cc2)c1 [Linifanib] (300 nM) | 104 | 101 | 103 | 105 | 111 | 113 |  |  |  |  |  |  | 
9 | COc1cc(Nc2ncc3c(n2)-c2ccc(Cl)cc2C(c2c(F)cccc2OC)=NC3)ccc1C(=O)O [MLN8237] (300 nM) |  |  |  |  |  |  | 49.2 | 35.9 | 44 | 9.79 | 44.1 | 64.7 | 
10 | COc1cc(Nc2ncc3c(n2)-c2ccc(Cl)cc2C(c2c(F)cccc2OC)=NC3)ccc1C(=O)O [MLN8237] (1000 nM) |  |  |  |  |  |  |  |  |  |  |  |  | normalised viability [13]: 36.9%; normalised viability [14]: 27.2%; normalised viability [15]: 69.1%; normalised viability [16]: 16.5%; normalised viability [17]: 54.2%; normalised viability [18]: 68.9%
11 | COc1cc(Nc2ncc3c(n2)-c2ccc(Cl)cc2C(c2c(F)cccc2OC)=NC3)ccc1C(=O)O [MLN8237] (3000 nM) | 28.8 | 26.2 | 69.2 | 18.3 | 58 | 60.1 |  |  |  |  |  |  | 
12 | S=c1[nH]cnc2nc[nH]c12 [Mercaptopurine] (300 nM) |  |  |  |  |  |  | 102 | 97.8 | 83.8 | 112 | 76.6 | 110 | 
13 | S=c1[nH]cnc2nc[nH]c12 [Mercaptopurine] (3000 nM) | 90.8 | 90.1 | 83.3 | 114 | 88.9 | 115 |  |  |  |  |  |  | 
14 | Clc1ccc(C(c2ccccc2Cl)C(Cl)Cl)cc1 (stereo not drawn) [Mitotane] (300 nM) |  |  |  |  |  |  | 101 | 109 | 94.5 | 95 | 92.5 | 110 | 
15 | Clc1ccc(C(c2ccccc2Cl)C(Cl)Cl)cc1 (stereo not drawn) [Mitotane] (3000 nM) | 103 | 111 | 94.6 | 96.2 | 91.7 | 113 |  |  |  |  |  |  | 
16 | COc1cccc2cc(-c3nc([C@H]4CC[C@H](C(=O)O)CC4)n4ncnc(N)c34)[nH]c12 [OSI-027] (300 nM) |  |  |  |  |  |  | 76.1 | 74.3 | 75.5 | 82.5 | 37.9 | 66.1 | 
17 | COc1cccc2cc(-c3nc([C@H]4CC[C@H](C(=O)O)CC4)n4ncnc(N)c34)[nH]c12 [OSI-027] (3000 nM) | 46.4 | 42.9 | 32.9 | 69.1 | 31.1 | 19.9 |  |  |  |  |  |  | 

Row | Compound | normalised viability [1] [%] | normalised viability [2] [%] | normalised viability [3] [%] | normalised viability [4] [%] | normalised viability [5] [%] | normalised viability [6] [%] | normalised viability [7] [%] | normalised viability [8] [%] | normalised viability [9] [%] | normalised viability [10] [%] | normalised viability [11] [%] | normalised viability [12] [%] | also measured
18 | OC[C@H]1O[C@@H](n2cnc3c2N=CNC[C@H]3O)C[C@@H]1O [Pentostatin] (300 nM) |  |  |  |  |  |  | 111 | 94.3 | 97.8 | 93.1 | 82.3 | 108 | 
19 | OC[C@H]1O[C@@H](n2cnc3c2N=CNC[C@H]3O)C[C@@H]1O [Pentostatin] (3000 nM) | 112 | 95.8 | 96.4 | 90.9 | 96.8 | 96.8 |  |  |  |  |  |  | 
20 | N#CC[C@H](C1CCCC1)n1cc(-c2ncnc3[nH]ccc23)cn1 [Ruxolitinib] (300 nM) |  |  |  |  |  |  | 95.1 | 86.7 | 92 | 114 | 73.3 | 78.4 | 
21 | N#CC[C@H](C1CCCC1)n1cc(-c2ncnc3[nH]ccc23)cn1 [Ruxolitinib] (3000 nM) | 87.7 | 105 | 114 | 114 | 105 | 94 |  |  |  |  |  |  | 
22 | C=CC[C@@H]1/C=C(\C)C[C@H](C)C[C@H](OC)[C@H]2O[C@@](O)(C(=O)C(=O)N3CCCC[C@H]3C(=O)O[C@H](/C(C)=C/[C@@H]3CC[C@@H](O)[C@H](OC)C3)[C@H](C)[C@@H](O)CC1=O)[C@H](C)C[C@@H]2OC [Tacrolimus] (300 nM) |  |  |  |  |  |  | 106 | 103 | 101 | 99.6 | 119 | 111 | 
23 | C=CC[C@@H]1/C=C(\C)C[C@H](C)C[C@H](OC)[C@H]2O[C@@](O)(C(=O)C(=O)N3CCCC[C@H]3C(=O)O[C@H](/C(C)=C/[C@@H]3CC[C@@H](O)[C@H](OC)C3)[C@H](C)[C@@H](O)CC1=O)[C@H](C)C[C@@H]2OC [Tacrolimus] (3000 nM) | 99.2 | 99.2 | 100 | 121 | 116 | 102 |  |  |  |  |  |  | 
24 | C=CCNC1=C2C[C@@H](C)C[C@H](OC)[C@H](O)[C@@H](C)/C=C(\C)[C@H](OC(N)=O)[C@@H](OC)/C=C\C=C(/C)C(=O)NC(=CC1=O)C2=O [Tanespimycin] (300 nM) |  |  |  |  |  |  | 19.7 | 48.2 | 47.2 | 1.35 | 28.8 | 8.64 | 
25 | C=CCNC1=C2C[C@@H](C)C[C@H](OC)[C@H](O)[C@@H](C)/C=C(\C)[C@H](OC(N)=O)[C@@H](OC)/C=C\C=C(/C)C(=O)NC(=CC1=O)C2=O [Tanespimycin] (3000 nM) | 17.2 | 11.3 | 23 | 0.57 | 24.7 | 8.29 |  |  |  |  |  |  | 
26 | CO[C@H]1C[C@@H]2CC[C@@H](C)[C@@](O)(O2)C(=O)C(=O)N2CCCC[C@H]2C(=O)O[C@H]([C@H](C)C[C@@H]2CC[C@@H](OC(=O)C(C)(CO)CO)[C@H](OC)C2)CC(=O)[C@H](C)/C=C(\C)[C@@H](O)[C@@H](OC)C(=O)[C@H](C)C[C@H](C)/C=C/C=C/C=C/1C [Temsirolimus] (30 nM) |  |  |  |  |  |  | 40.4 | 41.8 | 56.3 | 54.4 | 58.3 | 30.1 | 
27 | CO[C@H]1C[C@@H]2CC[C@@H](C)[C@@](O)(O2)C(=O)C(=O)N2CCCC[C@H]2C(=O)O[C@H]([C@H](C)C[C@@H]2CC[C@@H](OC(=O)C(C)(CO)CO)[C@H](OC)C2)CC(=O)[C@H](C)/C=C(\C)[C@@H](O)[C@@H](OC)C(=O)[C@H](C)C[C@H](C)/C=C/C=C/C=C/1C [Temsirolimus] (300 nM) | 33.7 | 37.2 | 57.4 | 50.3 | 69.1 | 26.2 |  |  |  |  |  |  | 
28 | C[C@]1(c2nc3c(C(N)=O)cccc3[nH]2)CCCN1 [Veliparib] (300 nM) |  |  |  |  |  |  | 100 | 105 | 85.2 | 89.9 | 65.5 | 101 | 
29 | C[C@]1(c2nc3c(C(N)=O)cccc3[nH]2)CCCN1 [Veliparib] (3000 nM) | 91.8 | 108 | 92.2 | 86.2 | 82.9 | 109 |  |  |  |  |  |  | 
30 | CC[C@]1(O)C[C@@H]2CN(CCc3c([nH]c4ccccc34)[C@@](C(=O)OC)(c3cc4c(cc3OC)N(C)[C@H]3[C@@](O)(C(=O)OC)[C@H](OC(C)=O)[C@]5(CC)C=CCN6CC[C@]43[C@@H]65)C2)C1 [Vinblastine] (30 nM) |  |  |  |  |  |  | 17.2 | 49.7 | 36.2 | 67.4 | 31.5 | 29.1 | 
31 | CC[C@]1(O)C[C@@H]2CN(CCc3c([nH]c4ccccc34)[C@@](C(=O)OC)(c3cc4c(cc3OC)N(C)[C@H]3[C@@](O)(C(=O)OC)[C@H](OC(C)=O)[C@]5(CC)C=CCN6CC[C@]43[C@@H]65)C2)C1 [Vinblastine] (300 nM) | 17.7 | 16.9 | 30.8 | 20.9 | 33.5 | 24.4 |  |  |  |  |  |  | 
32 | CS(=O)(=O)c1ccc(C(=O)Nc2ccc(Cl)c(-c3ccccn3)c2)c(Cl)c1 [Vismodegib] (300 nM) |  |  |  |  |  |  | 81.3 | 106 | 95.7 | 102 | 44 | 102 | 
33 | CS(=O)(=O)c1ccc(C(=O)Nc2ccc(Cl)c(-c3ccccn3)c2)c(Cl)c1 [Vismodegib] (3000 nM) | 83.3 | 108 | 96.4 | 112 | 103 | 95 |  |  |  |  |  |  | 

Source: the supplement of paper PMC4862054
